Data reported in the supplement of paper PMC4862054.

Experiments:
Conditions in all cases: incubation time: 72 h
BT-549 [1] = experiment: drug sensitivity score (DSS), CellTox Green (DSS (AUC-based score)); higher = stronger drug effect (viability inhibition or cytotoxicity); extreme values may be limits of the assay
Method in brief: (§1)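 After 72 h of incubation in 384-well plates with compound at 5 concentrations (10-fold steps, 10,000-fold range set per compound), breast cancer cell lines seeded in 20 µl suspension were read first for CellTox Green fluorescence at 485/520 nm. CellTiter-Glo luminescence was measured next, after 10 min at room temperature. Normalisation on each plate used 0.1 % DMSO and a positive kill control, and the drug sensitivity score was computed from the area under the fitted dose-response curve.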

MDA-MB-453 [2] = experiment: as above
Method in brief: as §1

HCC1599 = experiment: as above
Method in brief: as §1

MDA-MB-436 = experiment: as above
Method in brief: as §1

CAL-120 = experiment: as above
Method in brief: as §1

MCF-10A = experiment: as above
Method in brief: as §1

HCC1937 [3] = experiment: as above
Method in brief: as §1

CAL-148 = experiment: as above
Method in brief: as §1

HDQ-P1 = experiment: as above
Method in brief: as §1

HCC1143 = experiment: as above
Method in brief: as §1

MDA-MB-468 = experiment: as above
Method in brief: as §1

MDA-MB-231 = experiment: as above
Method in brief: as §1

CAL-51 [4] = experiment: as above
Method in brief: as §1

BT-474 [5] = experiment: as above
Method in brief: as §1

Hs578T = experiment: as above
Method in brief: as §1

DU-4475 [6] = experiment: as above
Method in brief: as §1

MFM-223 = experiment: as above
Method in brief: as §1

CAL-85-1 = experiment: as above
Method in brief: as §1

BT-549 [7] = experiment: normalised viability (% of control), CellTiter-Blue; higher = more viable cells (about 100 = DMSO control)
Method in brief: (§2)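 Plates were quality-checked by Z'-factor and normalised to vehicle (100) and a positive kill control (0). The underlying assay incubated breast cancer cell lines for 72 h on 384-well plates with compound, then added 2.5 µl CellTiter-Blue for 2 h at 37 °C and read at 560/590 nm. The value is normalised viability at a single listed concentration of the series.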

MDA-MB-453 [8] = experiment: as above
Method in brief: as §2

HCC1937 [9] = experiment: as above
Method in brief: as §2

CAL-51 [10] = experiment: as above
Method in brief: as §2

BT-474 [11] = experiment: as above
Method in brief: as §2

DU-4475 [12] = experiment: as above
Method in brief: as §2

SMILES: Nc1nccc(-c2c(-c3ccc(F)cc3)ncn2C2CCCCC2)n1
- drug sensitivity score (BT-549 [1]): 0
- drug sensitivity score (MDA-MB-453 [2]): 0
- drug sensitivity score (HCC1599): 0
- drug sensitivity score (MDA-MB-436): 0
- drug sensitivity score (CAL-120): 0
- drug sensitivity score (MCF-10A): 3.55
- drug sensitivity score (HCC1937 [3]): 0
- drug sensitivity score (CAL-148): 0
- drug sensitivity score (HDQ-P1): 0
- drug sensitivity score (HCC1143): 0
- drug sensitivity score (MDA-MB-468): 0
- drug sensitivity score (MDA-MB-231): 0
- drug sensitivity score (CAL-51 [4]): 0
- drug sensitivity score (BT-474 [5]): 0
- drug sensitivity score (Hs578T): 0
- drug sensitivity score (DU-4475 [6]): 0
- drug sensitivity score (MFM-223): 0
- drug sensitivity score (CAL-85-1): 0

SMILES: CCS(=O)(=O)c1cccc(-c2cc(C(=O)NC3CCN(C)CC3)c(C)c3[nH]c4ncc(C)cc4c23)c1 [TAK-901]
- drug sensitivity score (BT-549 [1]): 0.958
- drug sensitivity score (MDA-MB-453 [2]): 0
- drug sensitivity score (HCC1599): 0
- drug sensitivity score (MDA-MB-436): 0
- drug sensitivity score (CAL-120): 0
- drug sensitivity score (MCF-10A): 0
- drug sensitivity score (HCC1937 [3]): 0
- drug sensitivity score (CAL-148): 0
- drug sensitivity score (HDQ-P1): 0
- drug sensitivity score (HCC1143): 0
- drug sensitivity score (MDA-MB-468): 0
- drug sensitivity score (MDA-MB-231): 3.45
- drug sensitivity score (BT-474 [5]): 0
- drug sensitivity score (Hs578T): 0
- drug sensitivity score (DU-4475 [6]): 0
- drug sensitivity score (MFM-223): 0
- drug sensitivity score (CAL-85-1): 0
- normalised viability (BT-549 [7]; 1 nM): 94.6%
- normalised viability (BT-549 [7]; 100 nM): 71.2%
- normalised viability (BT-549 [7]; 1000 nM): 20.1%
- normalised viability (MDA-MB-453 [8]; 0.3 nM): 102%
- normalised viability (MDA-MB-453 [8]; 3 nM): 111%
- normalised viability (MDA-MB-453 [8]; 10 nM): 83.5%
- normalised viability (HCC1937 [9]; 1 nM): 116%
- normalised viability (HCC1937 [9]; 100 nM): 80.7%
- normalised viability (HCC1937 [9]; 1000 nM): 35.2%
- normalised viability (CAL-51 [10]; 0.3 nM): 98%
- normalised viability (CAL-51 [10]; 3 nM): 92.8%
- normalised viability (CAL-51 [10]; 10 nM): 92.1%
- normalised viability (BT-474 [11]; 1 nM): 131%
- normalised viability (BT-474 [11]; 100 nM): 107%
- normalised viability (BT-474 [11]; 1000 nM): 78.6%
- normalised viability (DU-4475 [12]; 0.3 nM): 94.7%
- normalised viability (DU-4475 [12]; 3 nM): 88.1%
- normalised viability (DU-4475 [12]; 10 nM): 101%

SMILES: O=c1[nH]c(=O)n([C@H]2C[C@H](O)[C@@H](CO)O2)cc1F [Floxuridine]
- drug sensitivity score (BT-549 [1]): 0
- drug sensitivity score (MDA-MB-453 [2]): 0
- drug sensitivity score (HCC1599): 0
- drug sensitivity score (MDA-MB-436): 0
- drug sensitivity score (CAL-120): 0
- drug sensitivity score (MCF-10A): 0
- drug sensitivity score (HCC1937 [3]): 0
- drug sensitivity score (CAL-148): 0
- drug sensitivity score (HDQ-P1): 1.01
- drug sensitivity score (HCC1143): 0
- drug sensitivity score (MDA-MB-468): 0
- drug sensitivity score (MDA-MB-231): 0
- drug sensitivity score (CAL-51 [4]): 5.94
- drug sensitivity score (BT-474 [5]): 0
- drug sensitivity score (Hs578T): 0
- drug sensitivity score (DU-4475 [6]): 0
- drug sensitivity score (CAL-85-1): 4.11
- normalised viability (BT-549 [7]; 10 nM): 96.5%
- normalised viability (BT-549 [7]; 1000 nM): 67.1%
- normalised viability (BT-549 [7]; 10000 nM): 44.8%
- normalised viability (MDA-MB-453 [8]; 3 nM): 109%
- normalised viability (MDA-MB-453 [8]; 30 nM): 79%
- normalised viability (MDA-MB-453 [8]; 100 nM): 85.3%
- normalised viability (HCC1937 [9]; 10 nM): 78.3%
- normalised viability (HCC1937 [9]; 1000 nM): 76%
- normalised viability (HCC1937 [9]; 10000 nM): 42.1%
- normalised viability (CAL-51 [10]; 3 nM): 108%
- normalised viability (CAL-51 [10]; 30 nM): 64.4%
- normalised viability (CAL-51 [10]; 100 nM): 46.6%
- normalised viability (BT-474 [11]; 10 nM): 108%
- normalised viability (BT-474 [11]; 1000 nM): 103%
- normalised viability (BT-474 [11]; 10000 nM): 94.8%
- normalised viability (DU-4475 [12]; 3 nM): 107%
- normalised viability (DU-4475 [12]; 30 nM): 107%
- normalised viability (DU-4475 [12]; 100 nM): 69.5%
